According to patent US20110262561A1, “Protoilludance Norsesquiterpenoid Esters and Uses Thereof” (NATIONAL RESEARCH INSTITUTE OF CHINESE MEDICINE, priority 2010, published 2011):
Read-outs that look alike come from different tables or passages of the source.

Assays:
MCF-7 = assay: Alamar blue cytotoxicity assay on MCF-7 cancer cells; format: cell-based; settings: for IC50: Homo sapiens, MCF7, alamar blue, 48 hours treatment
Experimental: (§1) The endothelial cells (human endothelial-like cells, Eahy926) and 4 cancer cell lines (MCF-7, H460, HT-29, and CEM) were derived from the American Type Culture Collection (ATCC) and were maintained in DMEM or RPMI medium (Life Technologies) supplemented with 2 mM L-glutamine and 10% heat-inactivated fetal bovine serum (FBS) (Life Technologies) under standard culture conditions. The cell viability and cell number were determined by the Trypan Blue dye-exclusion method.
(§2) The alamar blue (AB) assay (dye purchased from Biosource International, Nivelles, Belgium) was used to estimate cell viability in accordance with procedures previously described by Fatokun et al (Bone (2006) 39, 542-551). Briefly, cells were treated with various concentration of each of the test compounds (e.g., compounds of example 1.1) at 37° C. for 48 hours, and the medium in each well was then aspirated at the end of the treatment, 100 μL of fresh medium containing 10% v/v AB was then added to the control and the treated wells, respectively. Plates were then incubated at 37° C. for 6 hour prior to measuring the absorbance at 570 nm and at 600 nm wavelengths using a spectrophotometric plate reader (DYNEX Technologies, USA). Experimental data were normalized to control values. CH-205-A, K, L, O, and -P were effective on MCF-7 cells; CH-205-A, H, K, L, O, and -P were effective on H460 cells; CH-205-A and -P were effective on HT-29 cells and CH-205-A, H, N, and -O were effective on CEM cells.

endothelial cells (ECs) = assay: In vitro antiangiogenesis on ECs (inhibition of endothelial cell growth); format: cell-based; settings: Homo sapiens, ECs, read-out: In vitro antiangiogenesis IC50
Experimental: as §1
(§3) Anti-angiogenic effects of CH-205 compounds were estimated by their inhibition on the growth of endothelial cells. The toxicity of CH-205 compounds to endothelial cells was estimated using MTT (3-(4,5-dimethy;thiazol-2-yl)-2,5-diphenyltetrazolium bromide, a tetrazole) assay. MTT assay is a standard colorimetric assay (an assay which measures changes in color) for measuring the activity of enzymes that reduce yellow MTT to formazan, giving a purple color. It is also used to determine cytotoxity of potential medicinal agents and other toxic materials, since those agents would result in cell toxicity and therefore metabolic dysfunction and therefore decreased performance in the assay. The cytotoxity concentrations of the CH-205 compounds measured in MTT test are all over 20 μM (Table 2), however, their effects on angiogenesis inhibition are in nM range, indicating the safety of these compounds (Table 3).

H460 = assay: Alamar blue cytotoxicity assay on H460 cancer cells; format: cell-based, human; settings: for IC50: Homo sapiens, NCI-H460, alamar blue, 48 hours treatment
Experimental: as §1, §2

HT-29 = assay: Alamar blue cytotoxicity assay on HT-29 cancer cells; format: cell-based; settings: Homo sapiens, HT-29; alamar blue, 48 hours treatment
Experimental: as §1, §2

CEM = assay: Alamar blue cytotoxicity assay on CEM cancer cells; format: cell-based; settings: for IC50: Homo sapiens, CCRF-CEM, alamar blue, 48 hours treatment
Experimental: as §1, §2

[1] = test system: endothelial cells (human endothelial-like cells, Eahy926); assay: MTT cell viability of endothelial cells (ECs); format: cell-based
Experimental: as §1, §3

[2] = MTT cell viability of endothelial cells (ECs); format: cell-based, human; settings: human, Eahy926 endothelial-like cells, column head prints none, read-out: Cell viability IC50 (cytotoxicity concentration on ECs)
Experimental: as §1, §3

[3] = test system: H460 human lung cancer tumor xenograft; settings: for effect on body weight: mouse, in vivo
Experimental: The established, transplantable, 5×10^6/200 μL H460 tumor cells were prepared in RPMI medium. The 200 μL of cell suspension was injected subcutaneously into right flank area of each mouse. The mice were randomized into vehicle control and drug treatment groups of four-six animals each when xenografts were palpable with a tumor size of 40 mm^3. Adminitration of the lead compounds or vehicle began on day 15 when the median tumor size was ranged from 75 to 80 mm^3. Tumor-bearing animals were randomized (five per group) prior to treatment. The candidate test drugs were intraperitoneal (IP) administered into with optimal dosage once every other day (48 hr apart) for 7 or 10 times. […] Solvent vehicle and cisplatin (5 mg/kg) were used to administrate, respectively, as io negative and positive controls. Two days after last administration of tested compounds, the animals were sacrificed. The tumor dimensions were measured every other day using a linear caliper and tumor volume is calculated using the equation V (mm^3)=a×b^2/2, where a is the largest diameter and b is the smallest diameter. Body weights are also recorded once weekly. Tumor is growth inhibition ratio (TGI) is calculated using the equation TGI=(1−(the mean treated tumor mass/mean control tumor mass))*100%.

SMILES	IC50 (MCF-7) [µM]	IC50 (endothelial cells (ECs)) [µM]	IC50 (H460) [µM]	IC50 (HT-29) [µM]	IC50 (CEM) [µM]	Cell viability (% of control) 1 μM [1]	Cell viability (% of control) 10 μM [1]	Cell viability (% of control) 50 μM [1]	Cell viability (% of control) 100 μM [1]	Cell viability (% of control) 250 μM [1]	Cell viability (% of control) 500 μM [1]	IC50 [2] [µM]	effective on MCF-7 cells (MCF-7)	effective on H460 cells (H460)	effect on body weight [3]	further results
Cc1c(Cl)c(O)cc(O)c1C(=O)OCC1=C[C@@H]2CC(C)(C)C[C@@H]2[C@@]2(C)C[C@@H](O)[C@@]12O [CH-205-H, (((2R,2aS,4aS,7aS,7bR)-2,2a,4a,5,6,7,7a,7b-octahydro-2,2a-dihydroxy-6,6,7 b-trimethyl-1H-cyclobuta[e]inden-3-yl)methyl 3-chloro-4,6-dihydroxy-2-methylbenzoate)]	56.5	0.0013	5.5	7.1	5.4	99.7 % of control	128.7 % of control	34.9 % of control	12.7 % of control	8.4 % of control	7.0 % of control	29.3				melting point: 148 to 149 °C
Cc1c(Cl)c(O)cc(O)c1C(=O)O[C@@H]1C[C@]2(C)C3CC(C)(C)CC3C=C(CO)[C@]12O (stereo partly drawn) [CH-205-K, (2R,2aS,7bR)-2,2a,4a,5,6,7,7a,7b-octahydro-2a-hydroxy-3-(hydroxymethyl)-6,6,7b-trimethyl-1H-cyclobuta[e]inden-2-yl 3-chloro-4,6-dihydroxy-2-methylbenzoate]	4.8	0.0032	4.5	56.7	28.8	103.7 % of control	122.7 % of control	6.4 % of control	6.4 % of control	7.0 % of control	8.8 % of control	21.4	effective	effective	no different effect on body weight	tumor volume after sacrifice ([3]; CH-205-K study, 4 mg/kg IP every other day, 7 times, control 1.743±0.129): 1.364±0.14 cm^3; Tumor growth inhibition ratio (TGI) ([3]; CH-205-K study, 4 mg/kg IP, 7 times): 21.74%; tumor volume after sacrifice ([3]; CH-205-K study, 20 mg/kg IP every other day, 7 times, control 1.743±0.129): 1.283±0.077 cm^3; Tumor growth inhibition ratio (TGI) ([3]; CH-205-K study, 20 mg/kg IP, 7 times): 26.38%; tumor volume after sacrifice ([3]; CH-205-K study, 40 mg/kg IP every other day, 7 times, control 1.743±0.129): 1.109±0.119 cm^3; Tumor growth inhibition ratio (TGI) ([3]; CH-205-K study, 40 mg/kg IP, 7 times): 36.38%; tumor volume after sacrifice ([3]; CH-205-K study, 80 mg/kg IP every other day, 7 times, control 1.743±0.129): 0.867±0.086 cm^3; Tumor growth inhibition ratio (TGI) ([3]; CH-205-K study, 80 mg/kg IP, 7 times): 50.29%
COc1cc(O)c(C(=O)O[C@@H]2C[C@]3(C)C4CC(C)(C)CC4C=C(C=O)[C@]23O)c(C)c1Cl (stereo partly drawn) [CH-205-O, (2R,2aS,7bR)-3-formyl-2,2a,4a,5,6,7,7a,7b-octahydro-2a-hydroxy-6,6,7b-trimethyl-1 H-cyclobuta[e]inden-2-yl 3-chloro-6-hydroxy-4-methoxy-2-methylbenzoate]	1.7	0.0021	4.5	42.1	5.1	98.5 % of control	43.6 % of control	7.0 % of control	6.5 % of control	7.1 % of control	7.0 % of control	13.2	effective	effective	no different effect on body weight	tumor volume after sacrifice ([3]; CH-205-O study, 4 mg/kg IP every other day, 10 times, solvent control 3.984±0.484): 1.475±0.155 cm^3; Tumor growth inhibition ratio (TGI) ([3]; CH-205-O study, 4 mg/kg IP, 10 times): 60.87%; tumor volume after sacrifice ([3]; CH-205-O study, 40 mg/kg IP every other day, 10 times, solvent control 3.984±0.484): 1.470±0.177 cm^3; Tumor growth inhibition ratio (TGI) ([3]; CH-205-O study, 40 mg/kg IP, 10 times): 70.7%; tumor volume after sacrifice ([3]; CH-205-O study, 80 mg/kg IP every other day, 10 times, solvent control 3.984±0.484): 1.645±0.206 cm^3; Tumor growth inhibition ratio (TGI) ([3]; CH-205-O study, 80 mg/kg IP, 10 times): 62.9%; tumor regression ([3]; CH-205-O study, 4, 40 and 80 mg/kg each other day, after 10 injections): highly significant tumor regression; effective on CEM cells (CEM): effective
